Results as given in patent publication US9248117B2, “Substituted N,N-dihaloamines as antimicrobials” (priority 2010, dated 2016).
Converted amounts (≈) assume the structure as drawn.

How the values were obtained:
S. aureus 29213 = experiment: MBC/MFC against S. aureus 29213; type: cell-based; conditions: Staphylococcus aureus
E. coli 25922 = experiment: MBC/MFC against E. coli 25922; type: cell-based; conditions: Escherichia coli
C. albicans 10231 = experiment: MBC/MFC against C. albicans 10231; type: cell-based; conditions: Candida albicans
L929 cells = experiment: CT50 cytotoxicity in L929 cells; conditions: pH 7 phosphate

Row | Structure (SMILES) | MBC (S. aureus 29213; pH 4 acetate, Table 3) [µg/mL] | MBC (S. aureus 29213; pH 7 phosphate, Table 3) [µg/mL] | MBC (E. coli 25922; pH 4 acetate, Table 3) [µg/mL] | MBC (E. coli 25922; pH 7 phosphate, Table 3) [µg/mL] | MFC (C. albicans 10231; pH 4 acetate, Table 3) [µg/mL] | MFC (C. albicans 10231; pH 7 phosphate, Table 3) [µg/mL] | CT50 L929 cells (L929 cells; Table 3) [mM] | MBC (S. aureus 29213; pH 4 acetate, Table 4) [µg/mL] | MBC (S. aureus 29213; pH 7 phosphate, Table 4) [µg/mL] | MBC (E. coli 25922; pH 4 acetate, Table 4) [µg/mL] | MBC (E. coli 25922; pH 7 phosphate, Table 4) [µg/mL] | MFC (C. albicans 10231; pH 4 acetate, Table 4) [µg/mL] | MFC (C. albicans 10231; pH 7 phosphate, Table 4) [µg/mL] | CT50 L929 cells (L929 cells; Table 4) [mM]
1 | COCCOCCOCC[N+](C)(C)CCC(C)(C)N(Cl)Cl [Compound 38-45, 3-(dichloroamino)-N-(2-(2-(2-methoxyethoxy)ethoxy)ethyl)-N,N,3-trimethylbutan-1-aminium 4-methylbenzenesulfonate] | 4 | 1020 | 4 | 1020 | 64 | > 2050 | 3.2 | – | – | – | – | – | – | –
2 | CC(C)(CCS(=O)(=O)CCOCCOCCS(=O)(=O)O)N(Cl)Cl [Compound 38-81, 2-(2-(2-(3-(dichloroamino)-3-methylbutylsulfonyl)ethoxy)ethoxy) ethanesulfonic acid] | 4 (≈ 9.61 µM) | 256 (≈ 615 µM) | 2 (≈ 4.8 µM) | 32 (≈ 76.9 µM) | 128 (≈ 307 µM) | > 2050 | 2.13 | – | – | – | – | – | – | –
3 | CC(C)(CCS(=O)(=O)CCOCCS(=O)(=O)O)N(Cl)Cl [Compound 38-83, 2-(2-(3-(dichloroamino)-3-methylbutylsulfonyl)ethoxy)ethanesulfonic acid] | 1 (≈ 2.69 µM) | 256 (≈ 688 µM) | 2 (≈ 5.37 µM) | 128 (≈ 344 µM) | 128 (≈ 344 µM) | > 1020 | 1.74 | – | – | – | – | – | – | –
4 | CC(C)(CCS(=O)(=O)CCOCCOCCO)N(Cl)Cl [Compound 38-85, 2-(2-(2-(3-(Dichloroamino)-3-methylbutylsulfonyl)ethoxy)ethoxy)ethanol] | 4 (≈ 11.4 µM) | 64 (≈ 182 µM) | 4 (≈ 11.4 µM) | 64 (≈ 182 µM) | 32 (≈ 90.8 µM) | > 1020 | 0.04 | – | – | – | – | – | – | –
5 | CCOCCOCCOCCS(=O)(=O)CCC(C)(C)N(Cl)Cl [Compound 38-89, N,N-dichloro-4-(2-(2-(2-ethoxyethoxy)ethoxy)ethylsulfonyl)-2-methylbutan-2-amine] | 8 (≈ 21 µM) | 128 (≈ 337 µM) | 8 (≈ 21 µM) | 256 (≈ 673 µM) | 4 (≈ 10.5 µM) | 512 (≈ 1350 µM) | 0.06 | – | – | – | – | – | – | –
6 | CCCCOCC[N+](C)(C)CCC(C)(C)N(Cl)Cl.[Cl-] [Compound 38-133, N-(2-butoxyethyl)-3-(dichloroamino)-N,N,3-trimethylbutan-1-aminium chloride] | 8 | 128 | 8 | 128 | 64 | 1020 | 0.26 | – | – | – | – | – | – | –
7 | CCCCCCOCC[N+](C)(C)CCC(C)(C)N(Cl)Cl.Cc1ccc(S(=O)(=O)[O-])cc1 [Compound 38-135, 3-(dichloroamino)-N-(2-(hexyloxy)ethyl)-N,N,3-trimethylbutan-1-aminium 4-methylbenzenesulfonate] | 2 | 512 | 8 | 256 | 32 | > 1020 | 0.08 | – | – | – | – | – | – | –
8 | COCCC[N+](C)(C)CCC(C)(C)N(Cl)Cl [Compound 38-137, 3-(dichloroamino)-N-(3-methoxypropyl)-N,N,3-trimethylbutan-1-aminium chloride] | 4 | > 1020 | 8 | 512 | 32 | > 1020 | 1.62 | – | – | – | – | – | – | –
9 | COCCOCCOCCOCCS(=O)(=O)CCC(C)(C)N(Cl)Cl [Compound 38-147, N,N-dichloro-2-methyl-4-(2-(2-(2-(2-methoxyethoxy)ethoxy)ethoxy)ethylsulfonyl)butan-2-amine] | 8 (≈ 19.5 µM) | 128 (≈ 312 µM) | 8 (≈ 19.5 µM) | 256 (≈ 624 µM) | > 256 | 2050 (≈ 4990 µM) | 0.039 | – | – | – | – | – | – | –
10 | CC(C)(CC[N+](C)(C)CCCO)N(Cl)Cl [Compound 38-151, 3-(dichloroamino)-N-(3-hydroxypropyl)-N,N,3-trimethylbutan-1-aminium] | 4 | > 2050 | 4 | 1020 | 64 | > 1020 | 0.12 | – | – | – | – | – | – | –
11 | COCCN1C(=O)C(C)(C)N(Cl)C1(C)C [Compound 39-01, 1-chloro-3-(2-methoxyethyl)-2,2,5,5-tetramethylimidazolidin-4-one] | – | – | – | – | – | – | – | 2 (≈ 8.52 µM) | 128 (≈ 545 µM) | 2 (≈ 8.52 µM) | 128 (≈ 545 µM) | 8 (≈ 34.1 µM) | 256 (≈ 1090 µM) | 0.08
12 | COCCOCCOCCN1C(=O)C(C)(C)N(Cl)C1(C)C [Compound 39-04, 1-Chloro-3-(2-(2-(2-methoxyethoxy)ethoxy)ethyl)-2,2,5,5-tetramethylimidazolidin-4-one] | – | – | – | – | – | – | – | 2 (≈ 6.2 µM) | 256 (≈ 793 µM) | 2 (≈ 6.2 µM) | 256 (≈ 793 µM) | 16 (≈ 49.6 µM) | 1020 (≈ 3170 µM) | 0.14
13 | COCCOCCOCCOCCN1C(=O)C(C)(C)N(Cl)C1(C)C [Compound 39-12, 1-chloro-2,2,5,5-tetramethyl-3-(2,5,8,11-tetraoxatridecan-13-yl)imidazolidin-4-one] | – | – | – | – | – | – | – | 8 (≈ 21.8 µM) | 256 (≈ 698 µM) | 8 (≈ 21.8 µM) | 256 (≈ 698 µM) | 16 (≈ 43.6 µM) | > 1020 | 0.18
14 | CC1(C)C(=O)N(CC(O)CO)C(C)(C)N1Cl (stereo not drawn) [Compound 39-27, 1-chloro-3-(2,3-dihydroxypropyl)-2,2,5,5-tetramethylimidazolidin-4-one] | – | – | – | – | – | – | – | 4 (≈ 16 µM) | 1020 (≈ 4080 µM) | 4 (≈ 16 µM) | 512 (≈ 2040 µM) | 16 (≈ 63.8 µM) | > 2050 | 0.14
15 | COCCOCCOCC[N+]1(C)CC(C)(C)N(Cl)C(C)(C)C1.[Cl-] [Compound 39-106, 4-chloro-1-(2-(2-(2-methoxyethoxy)ethoxy)ethyl)-1,3,3,5,5-pentamethylpiperazin-1-ium chloride] | – | – | – | – | – | – | – | 32 | > 512 | 16 | 256 | 64 | > 512 | 0.24
16 | CC1(C)CN(CCO)C(=O)C(C)(C)N1Cl [Compound 39-108, 4-chloro-1-(2-hydroxyethyl)-3,3,5,5-tetramethylpiperazin-2-one] | – | – | – | – | – | – | – | 2 (≈ 8.52 µM) | 128 (≈ 545 µM) | 1 (≈ 4.26 µM) | 32 (≈ 136 µM) | 8 (≈ 34.1 µM) | 64 (≈ 273 µM) | 0.1
17 | COCCOCCOCC[N+](C)(C)CCN1CC(C)(C)N(Cl)C1=O [Compound 39-110, 2-(3-chloro-4,4-dimethyl-2-oxoimidazolidin-1-yl)-N-(2-(2-(2-methoxyethoxy)ethoxy)ethyl)-N,N-dimethylethanaminium 4-methylbenzenesulfonate] | – | – | – | – | – | – | – | 128 | 2050 | 128 | 1020 | 256 | > 2050 | 3.9
18 | COCCOCCN1C(=O)C(C)(C)N(Cl)C1(C)C [Compound 39-112, 1-chloro-3-(2-(2-methoxyethoxy)ethyl)-2,2,5,5-tetramethylimidazolidin-4-one] | – | – | – | – | – | – | – | 8 (≈ 28.7 µM) | 128 (≈ 459 µM) | 4 (≈ 14.3 µM) | 128 (≈ 459 µM) | 8 (≈ 28.7 µM) | 1020 (≈ 3670 µM) | 0.16
19 | COCCOCCOCCCN1C(=O)C(C)(C)N(Cl)C1(C)C [Compound 39-114, 1-chloro-3-(3-(2-(2-methoxyethoxy)ethoxy)propyl)-2,2,5,5-tetramethylimidazolidin-4-one] | – | – | – | – | – | – | – | 4 (≈ 11.9 µM) | 256 (≈ 760 µM) | 8 (≈ 23.7 µM) | 256 (≈ 760 µM) | 8 (≈ 23.7 µM) | > 1020 | 0.24
20 | COCCOCCOCCOCCOCCOCCOCCOCCOCCOCCOCCOCCOCCOCCN1C(=O)C(C)(C)N(Cl)C1(C)C [Compound 39-116, 1-chloro-2,2,5,5-tetramethyl-3-(2,5,8,11,14,17,20,23,26,29,32,35,38,41-tetradecaoxatritetracontan-43-yl)imidazolidin-4-one] | – | – | – | – | – | – | – | 16 (≈ 19.8 µM) | 1020 (≈ 1270 µM) | 16 (≈ 19.8 µM) | 512 (≈ 634 µM) | 128 (≈ 159 µM) | > 2050 | 4.1
21 | COCCOCCOCCOCCOCCOCCOCCOCCOCCOCCOCCOCCOCCOCCOCCOCCOCCOCCOCCOCCOCCOCCOCCOCCOCCOCCOCCOCCOCCOCCOCCOCCOCCOCCOCCOCCOCCOCCOCCN1C(=O)C(C)(C)N(Cl)C1(C)C [Compound 39-118, 1-chloro-2,2,5,5-tetramethyl-3-(2,5,8,11,14,17,20,23,26,29,32,35,38,41,44, 47,50,53,56,59,62,65,68,71,74,77,80,83,86,89, 92,95,98,101,104,107,110,113,116-nonatriacontaoxaoctadecahectan-118-yl)imidazolidin-4-one] | – | – | – | – | – | – | – | 8 (≈ 4.19 µM) | 4100 (≈ 2150 µM) | 32 (≈ 16.8 µM) | 2050 (≈ 1070 µM) | 256 (≈ 134 µM) | > 2050 | 11.3
22 | CC1(C)C(CO)OC(=O)N1Cl (stereo not drawn) [Compound 39-122, 3-chloro-5-(hydroxymethyl)-4,4-dimethyloxazolidin-2-one] | – | – | – | – | – | – | – | 4 (≈ 22.3 µM) | 4 (≈ 22.3 µM) | 2 (≈ 11.1 µM) | 2 (≈ 11.1 µM) | > 512 | 1020 (≈ 5700 µM) | 0.14
23 | CN1CC(C)(CO)N(Cl)C1=O (stereo not drawn) [Compound 39-124, 3-chloro-4-(hydroxymethyl)-1,4-dimethylimidazolidin-2-one] | – | – | – | – | – | – | – | 16 (≈ 89.6 µM) | 32 (≈ 179 µM) | 16 (≈ 89.6 µM) | 8 (≈ 44.8 µM) | 8 (≈ 44.8 µM) | > 1020 | 0.33
24 | CC1(C)C(=O)N(CCCCO)C(C)(C)N1Cl [Compound 39-125, 1-chloro-3-(4-hydroxybutyl)-2,2,5,5-tetramethylimidazolidin-4-one] | – | – | – | – | – | – | – | 2 (≈ 8.04 µM) | 256 (≈ 1030 µM) | 2 (≈ 8.04 µM) | 32 (≈ 129 µM) | 128 (≈ 515 µM) | > 1020 | 2.21
